{
  "source": "patent US11648211B2",
  "about": "“Nanoencapsulated combination drug formulations” (priority 2019, dated 2023)",
  "origin": "cited, not measured here",
  "test_system": "spontaneous breast cancer",
  "note": "Like-named read-outs stand apart in the source and are kept apart here.",
  "data": [
    {"compound": "Cn1ncnc1[C@H]1c2n[nH]c(=O)c3cc(F)cc(c23)N[C@@H]1c1ccc(F)cc1", "note": "[TLZ, Talazoparib]", "values": [
      {"measurement": "animals with alopecia", "setting": "i.v.", "result": 25, "unit": "%"},
      {"measurement": "animals with alopecia", "setting": "oral", "result": 25, "unit": "%"}
    ]}
  ]
}
